This is an account of results in patent US20230265082A1, “SUBSTITUTED 1,2,4-OXADIAZOLES AS SMALL MOLECULE INHIBITORS OF UBIQUITIN-SPECIFIC PROTEASE 28” (Dana-Farber Cancer Institute, Inc., priority 2020, published 2023).

Test [1] deals with T1, USP28 (Homo sapiens, UniProt Q96RU2).
T1 sequence (Q96RU2 1-1077): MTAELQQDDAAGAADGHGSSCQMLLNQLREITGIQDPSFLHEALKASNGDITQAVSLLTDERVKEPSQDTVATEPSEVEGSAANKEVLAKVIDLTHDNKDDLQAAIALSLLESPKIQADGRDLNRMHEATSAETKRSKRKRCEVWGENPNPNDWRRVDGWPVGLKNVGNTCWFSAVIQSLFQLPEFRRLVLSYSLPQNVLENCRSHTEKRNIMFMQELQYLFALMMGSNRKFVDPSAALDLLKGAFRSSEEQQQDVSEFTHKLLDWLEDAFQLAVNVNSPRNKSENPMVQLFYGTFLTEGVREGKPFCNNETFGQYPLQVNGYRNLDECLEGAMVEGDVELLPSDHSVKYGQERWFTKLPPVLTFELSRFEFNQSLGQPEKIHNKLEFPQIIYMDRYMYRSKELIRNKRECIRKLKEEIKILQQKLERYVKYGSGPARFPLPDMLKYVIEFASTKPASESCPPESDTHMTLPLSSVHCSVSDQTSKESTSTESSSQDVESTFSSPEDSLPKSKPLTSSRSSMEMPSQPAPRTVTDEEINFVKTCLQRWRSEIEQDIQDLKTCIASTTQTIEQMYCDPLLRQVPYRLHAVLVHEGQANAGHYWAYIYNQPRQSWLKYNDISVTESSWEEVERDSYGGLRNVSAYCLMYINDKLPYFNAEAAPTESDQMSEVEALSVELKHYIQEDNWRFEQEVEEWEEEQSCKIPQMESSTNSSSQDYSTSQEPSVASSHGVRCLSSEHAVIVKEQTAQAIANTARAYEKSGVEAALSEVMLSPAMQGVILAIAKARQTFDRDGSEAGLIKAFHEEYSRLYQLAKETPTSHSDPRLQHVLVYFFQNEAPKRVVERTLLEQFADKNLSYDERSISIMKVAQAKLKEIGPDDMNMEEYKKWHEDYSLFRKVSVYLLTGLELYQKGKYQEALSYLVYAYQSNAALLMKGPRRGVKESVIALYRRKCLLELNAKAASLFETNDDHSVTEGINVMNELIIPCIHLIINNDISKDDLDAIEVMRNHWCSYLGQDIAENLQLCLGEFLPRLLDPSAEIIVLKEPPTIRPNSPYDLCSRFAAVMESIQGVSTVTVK
Briefly: Ubiquitin-Rhodamine110 assay. Type of test: biochemical. The conditions noted are these: USP28 at 1 nM, 30 minutes pre-incubation at room temperature, Ubiquitin-Rho110 125 nM. As to the method:
USP28 (at 1 nM) was pre-incubated with different concentrations of inhibitors or DMSO as a control in 50 mM Tris pH 8, 50 mM NaCl, 0.002% Tween-20, 5 mM DTT. Compounds and protein were incubated for 30 minutes at room temperature prior to the addition of Ubiquitin-Rho110 (Boston Biochem) substrate for a final concentration of 125 nM. The initial rate of the reaction was measured by collecting fluorescence data at one-minute interval over 30-minute period using a Clariostar® fluorescence plate reader at excitation and emission wavelength of 485 nm and 535 nm, respectively. The calculated initial rate values were plotted against inhibitor concentrations to determine IC50s. All the experimental data were plotted using GraphPad Prism®.

Test [2] concerns the target T1, USP28. The test is described as follows: Competitive activity-based protein profiling (target engagement, Ub-VME probe, Western blot). It counts as binding. Particulars: K562 cells lysed, treated with compound for 1 h followed by Ub-VME; Western blot (FIG. 3). The protocol:
K562 cells were lysed and treated with indicated concentrations of compound 8 for 1 h followed by incubation with Ub-VME. Ub-VME covalently modifies USP28, resulting in higher MW band observed by Western blot.
Cells were pelleted, washed with PBS buffer, lysed on ice (20 mM Tris pH 8, 150 mM NaCl, 1% NP-40, 10% glycerol, 1 mM TCEP, phosphatase inhibitor cocktails (Sigma P5726 and Calbiochem 524624), and protease inhibitors (pepstatin, leupeptin, PMSF, and aprotinin), and clarified by centrifugation. Protein content was quantified by BCA and diluted to 2 mg/mL in lysis buffer. Compounds were added at desired concentrations and incubated at room temperature for 30 minutes. Samples were then supplemented with 2 uM HA-Ub-VS and incubated at room temperature with shaking for 15 minutes. Reactions were quenched with 4×LDS sample buffer (Thermo Fisher B0007) supplemented with 10% BME, vortexed vigorously, and heated to 95° C. for 5 minutes. Samples were resolved by SDS-PAGE and analyzed by Western blot with the indicated antibodies.
In general terms: In western blotting, separated proteins are transferred to a membrane and probed.

As to `O=c1ccc(-c2noc(Cc3ccccc3)n2)c[nH]1` [Compound 7], the half-inhibitory concentration (IC50) on USP28 [1] lay within 1 to 10 µM. Still for that read-out and setting: in the case of `O=c1ccc(-c2noc(Cc3ccc(Cl)cc3)n2)c[nH]1` [Compound 4] it was 1 to 10 µM.

Consider `O=C(O)c1cccc(-c2noc(Cc3ccc(Cl)c(Cl)c3)n2)c1` [Compound 18], for which the IC50 on USP28 [1] was 10 to 100 µM. As to `O=c1ccc(-c2nc(Cc3ccc(Cl)c(Cl)c3)no2)c[nH]1` [Compound 9], the IC50 at USP28 [1] was 1 to 10 µM.

The compound `CCC(c1ccccc1)c1nc(-c2ccc(Cl)nc2)no1` (centres unmarked) [Compound 20] yielded a concentration for half-maximal inhibition (IC50) against USP28 [1] of over 100 µM. Still for that read-out and setting: for `Clc1ccc(-c2noc(Cc3cccc4ccccc34)n2)cn1` [Compound 23] the value was 1 to 10 µM; for `CN1CCN(c2cc(Cn3cc(-c4nc(-c5ccc(OC(F)(F)F)cc5)no4)ccc3=O)ccn2)CC1` [Compound 12], over 100 µM; for `Nc1ccc(Cc2nc(-c3ccc(Cl)nc3)no2)cc1` [Compound 30], 10 to 100 µM. Take `c1ccc(-c2nc(-c3cccnc3)no2)nc1` [Compound 2]: the IC50 against USP28 [1] was over 100 µM.

For `Clc1ccc(Cc2nc(-c3ccc(Cl)nc3)no2)cc1` [Compound 3], the IC50 on USP28 [1] fell in the range of 1 to 10 µM.

Consider `CN(C)c1ccc(-c2noc(Cc3ccc(Cl)c(Cl)c3)n2)cn1` [Compound 13], for which the 50% inhibitory concentration (IC50) on USP28 [1] was over 100 µM.

Take `O=c1ccc(-c2noc(Cc3cccc(Cl)c3)n2)c[nH]1` [Compound 28]: the half-inhibitory concentration (IC50) at USP28 [1] was under 1 µM. The same measure, in the same setting: for `Clc1ccc(-c2noc(Cc3ccc4ccccc4c3)n2)cn1` [Compound 22] the value was under 1 µM; for `O=C(Nc1ccc(-c2noc(Cc3ccc(Cl)c(Cl)c3)n2)cn1)[C@H]1CCNC1` [Compound 32], 1 to 10 µM. The compound `Clc1ccc(-c2noc(Cc3ccc(Cl)c(Cl)c3)n2)cn1` [Compound 5] yielded a half-inhibitory concentration (IC50) against USP28 [1] of under 1 µM. Regarding `O=c1ccc(-c2noc(Cc3ccc(Cl)c(Cl)c3)n2)c[nH]1` [Compound 8], the 50% inhibitory concentration (IC50) against USP28 [1] is under 1 µM. Further, on USP28 [2], the “labeling of USP28 by covalent Ub-VME probe (target engagement)” value is on record as “prevents labeling of USP28 by the covalent Ub-VME probe”.

Compound `Nc1ccc(-c2noc(Cc3ccc(Cl)c(Cl)c3)n2)cn1` [Compound 19] had a concentration for half-maximal inhibition (IC50) against USP28 [1] of under 1 µM.

With `COC(=O)c1ccc(Cc2noc(Cc3ccc(Cl)c(Cl)c3)n2)cc1` [Compound 14], the IC50 against USP28 [1] was over 100 µM. For `Clc1ccc(-c2noc(Cc3ccccc3)n2)cn1` [Compound 6], the IC50 on USP28 [1] was under 1 µM. On the same count and under the same terms, in the case of `c1ccc2cc(Cc3nc(-c4ccncc4)no3)ccc2c1` [Compound 1] it was 1 to 10 µM. In turn, `O=[N+]([O-])c1cc(Cc2nc(-c3ccc(Cl)nc3)no2)ccc1Cl` [Compound 31] gave a half-inhibitory concentration (IC50) against USP28 [1] of 1 to 10 µM.

On USP28 [1], `Clc1cccc(Cc2nc(-c3ccc(Cl)nc3)no2)c1` [Compound 29] yielded a 50% inhibitory concentration (IC50) of 1 to 10 µM. The same measure, in the same setting: for `N[C@@H](Cc1ccccc1)c1nc(-c2ccc(=O)[nH]c2)no1` [Compound 17] the value was over 100 µM. The same measure, in the same setting: for `O=c1ccc(-c2noc(Cc3cc(F)cc(F)c3)n2)c[nH]1` [Compound 16] the value was 1 to 10 µM.

With `O=C(O)c1ccc(Cc2noc(Cc3ccc(Cl)c(Cl)c3)n2)cc1` [Compound 15], the IC50 on USP28 [1] fell in the range of 10 to 100 µM.

As for `CCC(c1ccccc1)c1nc(-c2ccc(=O)[nH]c2)no1` (centres unmarked) [Compound 21], the IC50 at USP28 [1] is over 100 µM. Same read-out and setting: for `O=c1ccc(-c2noc(Cc3ccc(Cl)c(Cl)c3)n2)cn1Cc1ccccc1` [Compound 10] the value was 1 to 10 µM; for `O=c1ccc(-c2nc(-c3ccc(OC(F)(F)F)cc3)no2)cn1Cc1ccnc(Cl)c1` [Compound 11], over 100 µM.

In general, IC50 refers to the concentration at which inhibition is half-maximal. Low values mean inhibition by little substance, high ones a need for much substance.
